Measurements: US10575520B2, “Cyclohexylamine-based compounds and uses thereof” (BOARD OF SUPERVISORS OF LOUISIANA STATE UNIVERSITY AND …, priority 2016, dated 2020)
Counter-ions that a name gives are not always drawn.

Experiments:
[1] = tested on: worker C. formosanus termites; assay: Dose-response feeding assay (termite mortality on treated filter paper)
Excerpt: Worker C. formosanus were collected from Brechtel Park, New Orleans, La. by methods known in the art. Bait crates (open-mesh plastic containers) filled with southern yellow pine or spruce-pine-fir sapwood were arranged into a lattice and buried near a C. formosanus infested tree and collected after 3 to 9 weeks. Termite-containing crates were held in 250-liter plastic garbage cans kept at room temperature (26-28 C) and 70-80% relative humidity with the original food source. Termites were collected from New Orleans on 13 Jun. 2006 (collection group A); 9 Aug. 2006 (collection group B); 1 Mar. 2008 (collection group C); 9 May 2008 (collection group D); 20 May 2008 (collection group E); 20 Mar. 2009 (collection group F); 29 May 2009 (collection group G) and 11 May 2010 (collection group H); 18 Aug. 2012 (collection group I); May 2014 (collection group J); August 2014 (collection group K). The termite collection procedure was tapping infested wood sticks into clean plastic containers where termites were collected on moistened paper towels.
(§1) 2-phospho-myo-inositol (dicyclohexylamine salt), glycerol-3-phosphate (dicyclohexylamine salt), dicyclohexylamine phosphate, monocyclohexylamine phosphate, and neat cyclohexylamine were screened for termiticide activity as follows: test compounds were applied to 42.5 mm×3 μm filter papers, in 60×15 mm plastic Petri dishes, in a solution of 1 mg of test compound per 10 μL of distilled water. Doses of 2.5 mg (160.2 μg/mm^3 of filter paper), 5 mg (320.4 μg/mm^3) 10 mg (640.8 μg/mm^3), and 20 mg (1281.7 μg/mm^3) of 2-phospho-myo-inositol were examined. Following filter paper treatment distilled water was added to bring the total volume applied to the filter papers to 300 μL, using 300 μL of distilled water as control. Cyclohexylamine was applied to the paper diluted in amounts of 300 μL, in concentrations ranging from 0.626 to 10.2 μg/mm^3. To prevent desiccation, approximately 50 μL of distilled water was applied to filter paper throughout the trials every third day, or upon observing that a filter paper disc was relatively dry. To test whether termite mortality was induced by consumption of the cyclohexylamine-treated paper, or whether vapor presence of cyclohexylamine was responsible for the toxicity, we compared addition of cyclohexylamine to both paper and fiberglass filters—the latter of which they will not consume. In addition to pure cyclohexylamine, dicyclohexylamine phosphate and monocyclohexylamine phosphate were tested for toxicity. Dicyclohexylamine phosphate was tested in concentrations ranging from 0.348 to 348 μg/mm^3, and monocyclohexylamine phosphate was tested in concentrations ranging from 2.28 to 228 μg/mm^3. Replicates of twenty worker termites were incubated in the dark in a parafilm-sealed Petri dish at room temperature for 2 weeks. Termite mortality was recorded daily in triplicate experiments. An analysis of variance (ANOVA) (SAS ANOVA procedure) followed by Tukey's Studentized range test was used to evaluate statistical differences among groups (Institute 1989). All mortality data were judged at a=0.05.
(§2) Termites from collection group B were used in the 2-Phospho-Myo-Inositol dose mortality assay. Termites from collection groups C and D were used in both the dicyclohexylamine-2-phophoinositol, and dicylclohexyalmine-glycerol-3-phosphate dose mortality assay. Termites from collection group I were used in cyclohexylamine dose mortality assays. Termites from collection […] in the dicyclohexylamine phosphate and neat cyclohexylamine volatility dose mortality assays. Termites from collection group K were used in the monocyclohexylamine phosphate dose mortality assay.

[2] = tested on: worker C. formosanus termites; assay: Cellulose (filter paper) consumption; type: in vivo, Coptotermes formosanus
Procedure: In dose mortality experiments where paper consumption data are shown, filter papers were weighed in ambient humidity prior to sugar application. After 14 days termites were removed from the dishes and the filter paper from each replicate was cleaned, washed of residual carbohydrate and dried at 100 C for 24 h. After drying and humidity equilibration for 24 h, filter papers were reweighed for determination of paper consumption. […] All consumption data were judged at a=0.05.

[3] = tested on: worker C. formosanus termites; assay: Cyclohexylamine volatile effects (cellulose paper vs fiberglass filter mortality); settings: 600 μg
Procedure: as §1, §2

[4] = tested on: worker termites (C. formosanus) antennae; assay: Termite antenna ablative shortening (antenna length quantification); type: in vivo, Coptotermes formosanus; settings: 640.8 μg/mm^3, 14 day assay
Procedure: Fifty worker termites, from collection group B, were placed in a 60×15 mm polystyrene petri dish with 42.5 mm filter paper treated with 10 mg of 2-phospho-myo-inositol (640.8 μg/mm^3). Daily for 14 day three randomly selected termites were removed, euthanized with 5 μL of ethanol and their antennae were photographed, after which, GSA image analyzer was used to quantify the length of the termite antennae (Bansemer and Scheel 2010). Antenna length data were subjected to ANOVA followed by Tukey's Studentized range test (Institute 1989). All data were judged at α=0.05. All experiments were performed in triplicate.

[5] = tested on: C. formosanus hindgut protozoan populations; assay: Protozoan counting, total hindgut protozoa; type: in vivo, Coptotermes formosanus; settings: 640.8 μg/mm^3, 14 day assay
Procedure: (§3) The effect of 2-phospho-myo-inositol dicyclohexylamine salt on C. formosanus hindgut protozoan populations was examined as follows: Ten mg of 2-phospho-myo-inositol were dissolved in 200 μL of distilled water and applied to filter paper, in a 60×15 mm plastic Petri dish, (640.8 μg/mm^3). Control filter paper received 200 μL of distilled water. With 75 worker termites per dish, collection group A were used. Pseudotrichonyrnpha grassii Koidzumi, Holornastigotoides hartmanni Koidzumi and Spirotrichonympha leidyi Koidzumi were counted daily for 2 week as described in Mannesmann, R., Z. Angew. Entomol. 72: 116-128 (1972); and modified by Maiastrello, L., et al., Pest Manag. Sci. 59: 58-68 (2002). Hindguts were removed from the posterior ends of three workers and gently macerated in 40 μL saline solution containing neutral red dye (0.5 mL of 1% aqueous neutral red solution dissolved in 10 mL saline solution). The number of each protozoan species was determined using a hemocytometer (Bright-line Improved Neubauer, Hausser Scientific, Horsham, Pa.) under a light microscope. The population of each protozoan species per hindgut (XF) was calculated as: XF=(G×n)/(V×3), where G=volume (μL) of solution hindguts dissected in; n=mean of two counts within hemocytometer; V=volume (μL) of area counted. Mean (±SE) XF values calculated from two replicates were used for graphical comparison of data. […]

[6] = tested on: Holornastigotoides hartmanni Koidzumi; assay: Protozoan counting, H. hartmanni; type: in vivo; settings: 640.8 μg/mm^3, 14 day assay
Procedure: as §3

[7] = tested on: Pseudotrichonyrnpha grassii Koidzumi; assay: Protozoan counting, P. grassii; type: in vivo; settings: 640.8 μg/mm^3, 14 day assay
Procedure: as §3

[8] = tested on: Spirotrichonympha leidyi Koidzumi; assay: Protozoan counting, S. leidyi; type: in vivo; settings: 640.8 μg/mm^3, 14 day assay
Procedure: as §3

Question: Which mortality versus control ([1]; 0.62 μg/mm^3) does the source give for `NC1CCCCC1` [Neat Cyclohexylamine, cyclohexylamine] here?
Answer: only the highest dosage group, 2.51 μg/mm^3, displayed significantly different mortality

Question: And the mortality versus control ([1]; 0.82 μg/mm^3)?
Answer: only the highest dosage group, 2.51 μg/mm^3, displayed significantly different mortality

Question: And the mortality versus control ([1]; 1.0 μg/mm^3 (lowest dosage of 1.0, 1.7, 2.4))?
Answer: Only the two highest dosage groups displayed mortality significantly different from the control

Question: What about the mortality versus control ([1]; 1.25 μg/mm^3) of the same molecule?
Answer: only the highest dosage group, 2.51 μg/mm^3, displayed significantly different mortality

Question: What about the “day on which mortality became significant” value ([1]; 1.7 μg/mm^3) of the same molecule?
Answer: eight

Question: What about the mortality ([1]; 1.7 μg/mm^3, day 14) of the same molecule?
Answer: 33%

Question: What about the “day on which mortality became significant” value ([1]; 2.4 μg/mm^3) of the same molecule?
Answer: five

Question: And the mortality ([1]; 2.4 μg/mm^3, day 14)?
Answer: 41%

Question: And the “day on which mortality became significantly different” value ([1]; 2.51 μg/mm^3)?
Answer: six

Question: And the mortality ([1]; 2.51 μg/mm^3, day 14)?
Answer: 63%

Question: And the mortality ([1]; 2.51 μg/mm^3, day six)?
Answer: 16%

Question: What about the mortality ([1]; 3.39 μg/mm^3, day three) of the same molecule?
Answer: 100%

Question: And the mortality ([1]; 5.08 μg/mm^3, within one to three days)?
Answer: 100%

Question: What about the mortality ([1]; 10.2 μg/mm^3, day one) of the same molecule?
Answer: 100%

Question: And the “consumption rate per termite versus control” value ([2]; 0.626 μg/mm^3, 14 days)?
Answer: did not result in a consumption rate per termite significantly different from the control group

Question: And the “consumption rate (per surviving termites) versus control” value ([2]; 0.822 μg/mm^3, 14 days)?
Answer: significantly lower than the control group

Question: What about the “consumption rate (per surviving termites) versus control” value ([2]; 1.253 μg/mm^3, 14 days) of the same molecule?
Answer: significantly lower than the control group

Question: And the “consumption rate (per surviving termites) versus control” value ([2]; 2.510 μg/mm^3, 14 days)?
Answer: significantly lower than the control group

Question: What about the “day on which mortality became significantly different” value ([3]; treatment of cellulose) of the same molecule?
Answer: eight

Question: What about the mortality ([3]; treatment of cellulose, day 14) of the same molecule?
Answer: 45%

Question: What about the mortality ([3]; treatment of cellulose, day eight) of the same molecule?
Answer: 25%

Question: What about the “mortality versus corresponding control group” value ([3]; treatment of fiberglass) of the same molecule?
Answer: did not result in mortality significantly different than that of the corresponding control group

Question: Which mortality versus control ([1]; 2.28 μg/mm^3) does the source give for `NC1CCCCC1.O=P(O)(O)O` [Monocyclohexylamine Phosphate, Monocyclohexylamine phosphate] here?
Answer: not significantly different from the control

Question: And the mortality versus control ([1]; 22.8 μg/mm^3)?
Answer: not significantly different from the control

Question: And the “day on which mortality became significantly different” value ([1]; 228 μg/mm^3)?
Answer: 10 days

Question: And the mortality ([1]; 228 μg/mm^3, day 10)?
Answer: 38%

Question: What about the mortality ([1]; 228 μg/mm^3, day 14) of the same molecule?
Answer: 100%

Question: `C1CCC(NC2CCCCC2)CC1.O=P(O)(O)O` [Dicyclohexylamine Phosphate, Dicyclohexylamine phosphate] was tested. Which “day on which mortality became significantly higher” value ([1]; 0.348 μg/mm^3) did it give?
Answer: three

Question: What about the mortality ([1]; 0.348 μg/mm^3, day 14) of the same molecule?
Answer: 28%

Question: What about the mortality versus control ([1]; 1.22 μg/mm^3) of the same molecule?
Answer: The two highest dosage groups, 4.90 and 9.80 μg/mm^3, displayed mortality significantly different than the control

Question: And the mortality versus control ([1]; 2.45 μg/mm^3)?
Answer: The two highest dosage groups, 4.90 and 9.80 μg/mm^3, displayed mortality significantly different than the control

Question: What about the “day on which mortality became significantly different” value ([1]; 4.90 μg/mm^3) of the same molecule?
Answer: three

Question: And the mortality ([1]; 4.90 μg/mm^3, day 14)?
Answer: 38%

Question: And the “day on which mortality became significantly different” value ([1]; 9.8 μg/mm^3)?
Answer: four

Question: And the mortality ([1]; 9.8 μg/mm^3, day 14)?
Answer: 36%

Question: What about the “mortality versus control group” value ([1]; 17.22 μg/mm^3) of the same molecule?
Answer: significantly different than the control group

Question: What about the “mortality versus control group” value ([1]; 34.44 μg/mm^3) of the same molecule?
Answer: significantly different than the control group

Question: What about the “day on which mortality became significantly different” value ([1]; 68.88 μg/mm^3) of the same molecule?
Answer: five

Question: And the mortality ([1]; 68.88 μg/mm^3, day 14)?
Answer: 45%

Question: And the mortality ([1]; 348 μg/mm^3, first day)?
Answer: 100%

Question: For `O=P(O)(O)OC1[C@@H](O)[C@H](O)C(O)[C@H](O)[C@H]1O` (stereo partly shown) [2-Phospho-Myo-Inositol, 2-phospho-myo-inositol (di-cyclohexylamine salt)], which “mortality versus control group” value ([1]; 160.2 μg/mm^3 filter paper, 14 day assay) is on record?
Answer: did not result in mortality significantly different from the control group

Question: And the “mortality versus control group” value ([1]; 320.4 μg/mm^3 filter paper, 14 day assay)?
Answer: did not result in mortality significantly different from the control group

Question: What about the “mortality versus control group” value ([1]; 640.8 μg/mm^3 filter paper, 14 day assay) of the same molecule?
Answer: did not result in mortality significantly different from the control group

Question: What about the “day on which mortality became significant” value ([1]; 1281.7 μg/mm^3) of the same molecule?
Answer: eight

Question: What about the mortality ([1]; 1281.7 μg/mm^3, day 14) of the same molecule?
Answer: 98%

Question: What about the mortality ([1]; 1281.7 μg/mm^3, day eight) of the same molecule?
Answer: Forty three

Question: And the “termite antennae length versus control” value [4]?
Answer: significantly reduced termite antennae of day five and six and eight through 14

Question: And the “total protozoan populations versus control” value [5]?
Answer: reduced total protozoan populations day four and thereafter

Question: And the “H. hartmanni populations versus control” value [6]?
Answer: significantly reduced on day one, two, five, eight, nine, 10, 11 and 14

Question: And the “P. grassii populations versus control” value [7]?
Answer: significantly lowered on day one, five, eight, nine, 10 and 11

Question: What about the “S. leidyi populations versus control” value [8] of the same molecule?
Answer: significantly lower than controls on day nine and 11

Question: What does the source list for `C1CCC(NC2CCCCC2)CC1.O=P(O)(O)OCC(O)CO` [glycerol-3-phosphate (dicyclohexylamine salt)]?
Answer: day on which mortality became significant ([1]; higher dosage group, 640.8 μg/mm^3): 5 days; mortality ([1]; higher dosage group, 640.8 μg/mm^3, day 12): 98%; day on which mortality became significant ([1]; lower dosage group, 320.4 μg/mm^3): 12 days; mortality ([1]; lower dosage group, 320.4 μg/mm^3, day 14): 71%
